Test results reported in patent US7598258B2, “Quinoline derivatives and quinazoline derivatives inhibiting autophosphorylation of macrophage colony stimulating factor receptor” (Kirin Beer Kabushiki Kaisha, priority 2002, dated 2009).

Molecular target: T1, mouse c-fms (Mus musculus, UniProt P09581)
T1 construct: Macrophage-like cell line BAC-1.2F5 which expresses c-fms as a M-CSF receptor on cell membranes; endogenous in cells; host or cells: BAC-1.2F5 mouse macrophage-like cell line
T1 sequence (P09581 20-977): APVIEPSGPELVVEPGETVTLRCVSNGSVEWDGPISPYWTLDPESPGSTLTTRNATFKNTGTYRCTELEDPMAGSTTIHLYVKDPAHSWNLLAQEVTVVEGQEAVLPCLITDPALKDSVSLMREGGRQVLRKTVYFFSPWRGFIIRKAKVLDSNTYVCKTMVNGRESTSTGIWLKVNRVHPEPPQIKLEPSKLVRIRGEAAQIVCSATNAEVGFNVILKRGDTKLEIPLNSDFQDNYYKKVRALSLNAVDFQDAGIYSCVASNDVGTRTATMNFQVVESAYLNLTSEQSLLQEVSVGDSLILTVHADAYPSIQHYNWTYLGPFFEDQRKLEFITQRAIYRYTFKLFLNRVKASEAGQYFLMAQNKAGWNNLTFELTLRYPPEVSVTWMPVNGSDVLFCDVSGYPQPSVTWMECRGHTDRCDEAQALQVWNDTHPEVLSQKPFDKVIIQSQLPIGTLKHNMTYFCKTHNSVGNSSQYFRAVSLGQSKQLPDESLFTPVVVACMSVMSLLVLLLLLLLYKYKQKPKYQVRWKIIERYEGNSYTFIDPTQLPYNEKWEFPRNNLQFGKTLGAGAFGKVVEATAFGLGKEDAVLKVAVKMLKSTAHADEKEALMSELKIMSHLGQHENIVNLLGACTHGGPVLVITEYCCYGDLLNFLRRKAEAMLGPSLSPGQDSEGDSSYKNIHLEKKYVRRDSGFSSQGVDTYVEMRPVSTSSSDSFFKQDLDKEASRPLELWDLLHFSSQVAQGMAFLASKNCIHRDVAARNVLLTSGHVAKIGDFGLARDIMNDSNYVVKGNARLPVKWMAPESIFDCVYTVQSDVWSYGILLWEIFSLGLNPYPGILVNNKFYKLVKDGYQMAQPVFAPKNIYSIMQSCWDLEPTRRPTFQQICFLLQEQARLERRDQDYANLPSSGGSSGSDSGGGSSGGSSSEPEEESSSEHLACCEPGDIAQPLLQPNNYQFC
Assay: Inhibition of c-fms autophosphorylation in macrophage-like cell line BAC-1.2F5 by M-CSF stimulation (ELISA)
Assay type: cell-based
Conditions: BAC-1.2F5 cells, human recombinant M-CSF 50 ng/ml, read-out: c-fms autophosphorylation 50% inhibitory concentration (IC50)
How it was run: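 BAC-1.2F5 cells serum-starved (0.1% FCS) 12 h, preincubated with compound 1 h at 37° C, then stimulated 6 min with 50 ng/ml human recombinant M-CSF. Lysates captured on anti-phosphotyrosine plates, detected with anti-c-fms antiserum and peroxidase read-out at 450 nm. IC50 from inhibition normalised between ±M-CSF controls.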

| IC50 | SMILES |
| --- | --- |
| 2.2 nM | COc1cc2nccc(Oc3ccc(NC(=O)N[C@@H](C)c4ccc(F)cc4)cc3)c2cc1OC [Example 2, N-{4-[(6,7-Dimethoxy-4-quinolyl)oxy]phenyl}-N′-[(1S)-1-(4-fluorophenyl)ethyl]urea] |
| 12.1 nM | COc1cc2nccc(Oc3ccc(NC(=O)N[C@@H](C)c4ccc([N+](=O)[O-])cc4)cc3)c2cc1OC [Example 35, N-{4-[(6,7-Dimethoxy-4-quinolyl)oxy]phenyl}-N′-[(1S)-1-(4-nitrophenyl)ethyl]urea] |
| 22.2 nM | COc1cc2nccc(Oc3ccc(NC(=O)N[C@H](C)c4cccc(Br)c4)cc3)c2cc1OC [Example 45, N-[(1R)-1-(3-Bromophenyl)ethyl]-N′-{4-[(6,7-dimethoxy-4-quinolyl)oxy]phenyl}urea] |
| 3.8 nM | COc1cc2nccc(Oc3ccc(NC(=O)N[C@@H](C)c4ccc(Cl)cc4)cc3)c2cc1OC [Example 47, N-[(1S)-1-(4-Chlorophenyl)ethyl]-N′-{4-[(6,7-dimethoxy-4-quinolyl)oxy]phenyl}urea] |
| 3.2 nM | COc1cccc([C@H](C)NC(=O)Nc2ccc(Oc3ccnc4cc(OC)c(OC)cc34)cc2)c1 [Example 49, N-{4-[(6,7-Dimethoxy-4-quinolyl)oxy]phenyl}-N′-[(1S)-1-(3-methoxyphenyl)ethyl]urea] |
| 40 nM | COc1cc2nccc(Oc3ccc(NC(=O)N[C@H](C)c4ccc(Cl)cc4)cc3)c2cc1OC [Example 48, N-[(1R)-1-(4-Chlorophenyl)ethyl]-N′-{4-[(6,7-dimethoxy-4-quinolyl)oxy]phenyl}urea] |
| 7.3 nM | COc1cc2nccc(Oc3ccc(NC(=O)N[C@@H](C)c4cccc(Br)c4)cc3)c2cc1OC [Example 46, N-[(1S)-1-(3-Bromophenyl)ethyl]-N′-{4-[(6,7-dimethoxy-4-quinolyl)oxy]phenyl}urea] |
| 2.4 nM | COc1cc2nccc(Oc3ccc(NC(=O)N[C@H](C)c4ccc(F)cc4)cc3)c2cc1OC [Example 3, N-{4-[(6,7-Dimethoxy-4-quinolyl)oxy]phenyl}-N′-[(1R)-1-(4-fluorophenyl)ethyl]urea] |
| 7.2 nM | COc1cccc([C@@H](C)NC(=O)Nc2ccc(Oc3ccnc4cc(OC)c(OC)cc34)cc2)c1 [Example 50, N-{4-[(6,7-Dimethoxy-4-quinolyl)oxy]phenyl}-N′-[(1R)-1-(3-methoxyphenyl)ethyl]urea] |
| 31.1 nM | COc1cc2nccc(Oc3ccc(NC(=O)N[C@H](C)c4ccc([N+](=O)[O-])cc4)cc3)c2cc1OC [Example 36, N-{4-[(6,7-Dimethoxy-4-quinolyl)oxy]phenyl}-N′-[(1R)-1-(4-nitrophenyl)ethyl]urea] |
| 38.5 nM | COc1cc2nccc(Oc3ccc(NC(=O)N[C@H](C)c4ccc(C)cc4)cc3)c2cc1OC [Example 42, N-{4-[(6,7-Dimethoxy-4-quinolyl)oxy]phenyl}-N′-[(1R)-1-(4-methylphenyl)ethyl]urea] |
| 2.8 nM | COc1cc2nccc(Oc3ccc(NC(=O)N[C@@H](C)c4ccc(C)cc4)cc3)c2cc1OC [Example 41, N-{4-[(6,7-Dimethoxy-4-quinolyl)oxy]phenyl}-N′-[(1S)-1-(4-methylphenyl)ethyl]urea] |
